Results published in patent US12187814B1, “Stapled antimicrobial peptide” (KING SAUD UNIVERSITY, priority 2024, dated 2025).
Converted amounts (≈) assume the structure as drawn. Like-named read-outs stand apart in the source and are kept apart here. Bridge positions count the residues as written; N and C are the ends. Square brackets hold non-standard residues; d marks the D form. Peptide text beside a SMILES is read from it. S5 = C=CCCC[C@](C)(N)C(=O)O

Key:
MRSA [1] = experiment: microbe, parasite or virus in culture; details: Staphylococcus aureus
MRSA [2] = experiment: Agar diffusion test (modified Kirby-Bauer), zone of inhibition; format: cell-based, Staphylococcus aureus; details: 30 μl per well, sAMP1 100 μg/ml, Kanamycin 50 μg/ml, 24 hours
Text: (§1) The agar diffusion method was used to examine the synthesized AMP's antibacterial activity. Pure colonies of Staphylococcus aureus and MRSA were used for antibacterial susceptibility testing according to Clinical Laboratory Standards Institute (CLSI) 2021 guideline) by using a modified Kirby-Bauer disk diffusion technique (Humphries, R. et al, “Overview of Changes to the Clinical and Laboratory Standards Institute Performance Standards for Antimicrobial Susceptibility Testing”, M100, 31st Edition, J. Clin. Microbiol. 2021 Nov. 18; 59 (12): e0021321). In brief, homogeneous colonies were chosen from each microbial strain and grown on Mullar Hilton broth at log phase. 0.5 McFarland standard culture was used to spread on to the Mullar Hilton agar plates. Freshly prepared (30 μl each) of Kanamycin 50 μg/ml and sAMP1 100 μg/ml was poured into 4 mm diameter well, blank well with an equivalent amount of saline served as a […] control. The plates were incubated for 24 hours, and the diameter of the inhibition zone was measured to determine susceptibility or resistance. The full analysis was carried out three times.

Staphylococcus aureus [3] = experiment: microbe, parasite or virus in culture
Staphylococcus aureus [4] = experiment: Agar diffusion test (modified Kirby-Bauer), zone of inhibition; format: cell-based; details: 30 μl per well, sAMP1 100 μg/ml, Kanamycin 50 μg/ml, 24 hours
Text: as §1

[5] = system: MCF-7 breast cancer cells
Method: Cytotoxicity & MTT Testing
(§2) Cell line MCF-7 and A549 cells were cultured under CO2 (5%) at 37° C. using Dulbecco's Modified Eagle's Medium (DMEM), accompanied with 1% mixture of “Penicillin-Streptomycin”, 10% Fetal Bovine Serum (FBS) and 1% L-Glutamine.

MRSA [6] = system: MRSA

Method for A549 lung cancer cells: Cytotoxicity & MTT Testing
as §2

| SMILES | MIC (MRSA [1]) [µg/mL] | zone of inhibition at 50 µg/mL (MRSA [2]; Staphylococcus aureus, read-out: Zone of Inhibition (mm), Mean ± SD, n = 3) [mm] | MIC (Staphylococcus aureus [3]) [µg/mL] | zone of inhibition at 50 µg/mL (Staphylococcus aureus [4]; read-out: Zone of Inhibition (mm), Mean ± SD, n = 3) [mm] | IC50 cell proliferation (MTT) ([5]; 24 h) [µg/mL] | anti-cell proliferation (MTT assay) ([5]; MCF-7 cells) | effect on proliferation ([5]; MCF-7 cells, 25 μg/ml) | Zone of Inhibition (mm), Mean ± SD, n = 3 (MRSA [2]) [mm] | MIC 96-well plate result (growth), replicates 1-3 (MRSA [6]; sAMP1 1.5625 μg/ml (row G)) | MIC 96-well plate result (growth), replicates 1-3 (MRSA [6]; sAMP1 3.125 μg/ml (row F)) | MIC 96-well plate result (growth), replicates 1-3 (MRSA [6]; sAMP1 6.25 μg/ml (row E)) | MIC 96-well plate result (growth), replicates 1-3 (MRSA [6]; sAMP1 12.5 μg/ml (row D)) | IC50 cell proliferation (MTT) (A549 lung cancer cells; 24 h) [µg/mL] | anti-cell proliferation (MTT assay) (A549 lung cancer cells; A549 cells) | effect on proliferation (A549 lung cancer cells; A549 cells, 25 μg/ml) | Zone of Inhibition (mm), Mean ± SD, n = 3 (Staphylococcus aureus [4]) [mm] |
| --- | --- | --- | --- | --- | --- | --- | --- | --- | --- | --- | --- | --- | --- | --- | --- | --- |
| NC[C@H]1O[C@H](O[C@H]2[C@H](O)[C@@H](O[C@H]3O[C@H](CO)[C@@H](O)[C@H](N)[C@H]3O)[C@H](N)C[C@@H]2N)[C@H](O)[C@@H](O)[C@@H]1O [Kanamycin, reference compound] | 3.12 (≈ 6.45 µM) | 21.6 ± 2.17 | 3.12 (≈ 6.45 µM) | 19.1 ± 1.38 | – | – | – | – | – | – | – | – | – | – | – | – |
| CC[C@H](C)[C@H](NC(=O)[C@H](CCCNC(=N)N)NC(=O)[C@H](CCCCN)NC(=O)[C@]1(C)CCCC=CCCC[C@](C)(NC(=O)[C@H](CCCCN)NC(=O)[C@H](CCC(=O)O)NC(=O)[C@H](CCCCN)NC(=O)[C@H](CO)NC(=O)[C@H](CCCCN)NC(=O)[C@H](CCCNC(=N)N)NC(=O)[C@H](Cc2ccccc2)NC(=O)[C@@H](N)Cc2ccccc2)C(=O)NCC(=O)N[C@@H](CCCCN)C(=O)N[C@@H](CCC(=O)O)C(=O)N1)C(=O)N[C@H](C(N)=O)C(C)C [sAMP1, FFRKSKEK-S5-GKE-S5-KRIV] (H-FFRKSKEK[S5]GKE[S5]KRIV-NH2; staple 9-13; N-terminus assumed) | – | – | – | – | 35.82 (≈ 16.8 µM) | dose-dependent anti-cell proliferation | significantly reduced the proliferation | 25.31±1.53 | Growth | Growth | Growth | Growth | 54.22 (≈ 25.5 µM) | dose-dependent anti-cell proliferation | significantly reduced the proliferation | 22.52±2.15 |
